In patent publication US12612410B2 (CHILDREN'S HOSPITAL MEDICAL CENTER, priority 2020, dated 2026):
pIC50: −log10 of the molar value.

How the values were obtained:
[1] = molecular target: T1, IRAK4 (Homo sapiens, UniProt Q9NWZ3); assay: RBC HotSpot Kinase Assay, IRAK4; type: biochemical; set-up: purchased Reaction Biology (RBC), HotSpot kinase assay; settings: isolated kinase, 33P-ATP
T1 sequence (Q9NWZ3 1-460): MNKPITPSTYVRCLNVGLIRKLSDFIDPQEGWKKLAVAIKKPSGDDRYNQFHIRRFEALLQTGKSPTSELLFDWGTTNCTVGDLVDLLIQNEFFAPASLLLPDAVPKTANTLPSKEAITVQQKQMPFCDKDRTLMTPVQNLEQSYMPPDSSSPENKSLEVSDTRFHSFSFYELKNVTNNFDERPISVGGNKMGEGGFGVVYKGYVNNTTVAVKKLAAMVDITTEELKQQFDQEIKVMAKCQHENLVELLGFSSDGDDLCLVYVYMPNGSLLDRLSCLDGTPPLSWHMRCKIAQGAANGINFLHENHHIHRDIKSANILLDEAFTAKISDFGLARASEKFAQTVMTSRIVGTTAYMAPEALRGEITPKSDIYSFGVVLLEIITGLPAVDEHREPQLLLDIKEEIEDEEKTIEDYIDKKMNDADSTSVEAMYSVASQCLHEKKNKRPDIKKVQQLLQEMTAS
In short: (§1)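 Kinase domain constructs, possibly truncated, were assayed radiometrically with 33P-ATP and substrate after 20 min compound preincubation, reacting 2 h at room temp.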

[2] = molecular target: T2, FLT3 (Homo sapiens, UniProt P36888); assay: RBC HotSpot Kinase Assay, FLT3; type: biochemical; set-up: purchased Reaction Biology (RBC), HotSpot kinase assay; settings: isolated kinase, 33P-ATP
T2 sequence (P36888 27-993): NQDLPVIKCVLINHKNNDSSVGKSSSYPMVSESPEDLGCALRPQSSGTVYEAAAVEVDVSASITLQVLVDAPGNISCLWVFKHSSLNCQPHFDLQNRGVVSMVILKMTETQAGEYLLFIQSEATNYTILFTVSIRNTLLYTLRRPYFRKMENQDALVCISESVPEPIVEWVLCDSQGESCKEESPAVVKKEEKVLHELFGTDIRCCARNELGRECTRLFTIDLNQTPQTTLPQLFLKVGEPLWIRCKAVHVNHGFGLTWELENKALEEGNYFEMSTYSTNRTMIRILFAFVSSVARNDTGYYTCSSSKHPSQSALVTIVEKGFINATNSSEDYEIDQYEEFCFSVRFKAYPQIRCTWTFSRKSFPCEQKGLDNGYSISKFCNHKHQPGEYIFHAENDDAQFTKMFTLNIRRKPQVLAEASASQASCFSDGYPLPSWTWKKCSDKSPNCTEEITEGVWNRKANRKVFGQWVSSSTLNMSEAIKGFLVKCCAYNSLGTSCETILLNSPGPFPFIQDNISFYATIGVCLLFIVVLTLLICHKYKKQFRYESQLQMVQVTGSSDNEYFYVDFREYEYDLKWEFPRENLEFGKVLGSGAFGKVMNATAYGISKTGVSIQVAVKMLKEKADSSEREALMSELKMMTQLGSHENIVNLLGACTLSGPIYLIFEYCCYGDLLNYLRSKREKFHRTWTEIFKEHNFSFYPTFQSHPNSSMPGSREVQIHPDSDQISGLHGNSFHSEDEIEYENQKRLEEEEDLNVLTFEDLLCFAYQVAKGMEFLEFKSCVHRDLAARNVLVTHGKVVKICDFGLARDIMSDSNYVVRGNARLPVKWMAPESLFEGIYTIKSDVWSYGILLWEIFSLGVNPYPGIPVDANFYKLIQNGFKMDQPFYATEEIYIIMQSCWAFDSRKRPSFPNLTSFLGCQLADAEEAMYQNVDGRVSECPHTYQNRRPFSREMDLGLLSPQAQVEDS
In short: as §1

[3] = molecular target: T3, IRAK1 (Homo sapiens, UniProt P51617); assay: RBC HotSpot Kinase Assay, IRAK1; type: biochemical; settings: isolated kinase, 33P-ATP
T3 construct: purchased Reaction Biology (RBC), HotSpot kinase assay
In short: as §1

[4] = test system: MOLM14 D835Y cells; assay: MOLM14 D835Y cell viability assay (Cell Titer Glo); type: cell-based
In short: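 MOLM14 cells carrying FLT3 D835Y or F691L were seeded at 1000 cells/well in RPMI-1640 with 20% FBS and dosed at 22 concentrations, 1:2 dilutions from 10 μM. Viability after 48 h by Cell Titer Glo luminescence; 2.3 μM bortezomib as cytotoxic control.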

T3 sequence (P51617 whole entry): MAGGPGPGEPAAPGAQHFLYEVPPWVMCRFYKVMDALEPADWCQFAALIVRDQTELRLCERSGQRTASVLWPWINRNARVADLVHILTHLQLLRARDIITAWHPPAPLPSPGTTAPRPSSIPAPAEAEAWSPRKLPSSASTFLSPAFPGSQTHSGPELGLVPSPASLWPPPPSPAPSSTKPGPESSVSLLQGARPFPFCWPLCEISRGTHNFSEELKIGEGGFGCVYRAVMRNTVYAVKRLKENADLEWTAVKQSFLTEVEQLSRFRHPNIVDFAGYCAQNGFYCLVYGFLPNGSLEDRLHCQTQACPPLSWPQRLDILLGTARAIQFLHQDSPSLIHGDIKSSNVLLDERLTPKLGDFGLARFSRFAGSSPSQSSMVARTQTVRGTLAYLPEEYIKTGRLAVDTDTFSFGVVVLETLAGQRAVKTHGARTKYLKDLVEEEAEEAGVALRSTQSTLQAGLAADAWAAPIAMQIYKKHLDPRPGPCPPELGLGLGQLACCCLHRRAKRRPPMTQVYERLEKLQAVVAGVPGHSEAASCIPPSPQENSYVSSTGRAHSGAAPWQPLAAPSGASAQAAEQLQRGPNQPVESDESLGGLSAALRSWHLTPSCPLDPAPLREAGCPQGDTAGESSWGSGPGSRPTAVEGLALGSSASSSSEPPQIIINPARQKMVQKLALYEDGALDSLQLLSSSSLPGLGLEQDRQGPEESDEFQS

## F[C@H]1CCNC[C@@H]1Nc1cccc(-c2cnc3cnc(C4CC4)cn23)n1 [Compound 51, 6-(6-cyclopropylimidazo[1,2-a]pyrazin-3-yl)-N-((3S,4S)-4-fluoropiperidin-3-yl)pyridin-2-amine]
[1]
  pIC50: 9.00
[2]
  pIC50: > 9.30
[3]
  pIC50: 7.10
[4]; Homo sapiens, MOLM-14, 48 h
  pIC50: 8.05

## FC(F)COc1cn2c(-c3cccc(N[C@H]4CNC[C@@H]4F)n3)cnc2cn1 [Compound 58, 6-(6-(2,2-difluoroethoxy)imidazo[1,2-a]pyrazin-3-yl)-N-((3S,4S)-4-fluoropyrrolidin-3-yl)pyridin-2-amine]
[1]
  pIC50: 9.00
[2]
  pIC50: 9.15
[3]
  pIC50: 6.93
[4]; Homo sapiens, MOLM-14, 48 h
  pIC50: 7.52

## CC(C)(O)c1cn2c(-c3nc(N[C@H]4CNC[C@@H]4F)c(F)cc3F)cnc2cn1 [Compound 33, 2-(3-(3,5-difluoro-6-(((3S,4S)-4-fluoropyrrolidin-3-yl)amino)pyridin-2-yl)imidazo[1,2-a]pyrazin-6-yl)propan-2-ol]
[1]
  pIC50: > 9.30
[2]
  pIC50: 9.22
[3]
  pIC50: 7.21
[4]; Homo sapiens, MOLM-14, 48 h
  pIC50: 6.77

## CC(C)(O)c1cn2c(-c3cccc(N[C@@H]4CCCNC4)n3)cnc2cn1 [Compound 30, (R)-2-(3-(6-(piperidin-3-ylamino)pyridin-2-yl)imidazo[1,2-a]pyrazin-6-yl)propan-2-ol]
[1]
  pIC50: > 9.30
[2]
  pIC50: > 9.30
[3]
  pIC50: 7.24
[4]; Homo sapiens, MOLM-14, 48 h
  pIC50: 7.12

## FC(F)(F)C1(c2cn3c(-c4cccc(N[C@@H]5CCNC5)n4)cnc3cn2)CC1 [Compound 10, (R)-N-(pyrrolidin-3-yl)-6-(6-(1-(trifluoromethyl)cyclopropyl)imidazo[1,2-a]pyrazin-3-yl)pyridin-2-amine]
[1]
  pIC50: 8.70
[2]
  pIC50: > 9.30
[3]
  pIC50: 6.81
[4]; Homo sapiens, MOLM-14, 48 h
  pIC50: 7.85

## CC(O)(c1cn2c(-c3cccc(N[C@H]4CNC[C@@H]4F)n3)cnc2cn1)C(F)(F)F (single isomer, unassigned) [Compound 78]
[1]
  pIC50: > 9.30
[2]
  pIC50: > 9.30
[3]
  pIC50: 7.18
[4]; 48 hours
  pIC50: 7.33

## CC1(c2cn3c(-c4cccc(N[C@H]5CNC[C@@H]5F)n4)cnc3cn2)CC1 [Compound 1, N-((3S,4S)-4-fluoropyrrolidin-3-yl)-6-(6-(1-methylcyclopropyl)imidazo[1,2-a]pyrazin-3-yl)pyridin-2-amine]
[1]
  pIC50: 9.30
[2]
  pIC50: 9.22
[3]
  pIC50: 7.20
[4]; Homo sapiens, MOLM-14, 48 h
  pIC50: 7.74

## O=C1CCCN1c1cn2c(-c3cccc(N[C@H]4CNCC[C@@H]4F)n3)cnc2cn1 [Compound 119, 1-(3-(6-(((3S,4S)-4-fluoropiperidin-3-yl)amino)pyridin-2-yl)imidazo[1,2-a]pyrazin-6-yl)pyrrolidin-2-one]
[1]
  pIC50: 8.00
[2]
  pIC50: > 9.30
[3]
  pIC50: 6.96
[4]; Homo sapiens, MOLM-14, 48 h
  pIC50: 7.72

## CC(C)(C)c1cn2c(-c3nc(N[C@@H]4CCCNC4)c(F)cc3F)cnc2cn1 [Compound 126, (R)-6-(6-(tert-butyl)imidazo[1,2-a]pyrazin-3-yl)-3,5-difluoro-N-(piperidin-3-yl)pyridin-2-amine]
[1]
  pIC50: 8.70
[2]
  pIC50: > 9.30
[3]
  pIC50: 7.10
[4]; Homo sapiens, MOLM-14, 48 h
  pIC50: 7.68

## O=S1(=O)CCCN1c1cn2c(-c3cccc(N[C@H]4CNCC[C@@H]4F)n3)cnc2cn1 [Compound 97, 2-(3-(6-(((3S,4S)-4-fluoropiperidin-3-yl)amino)pyridin-2-yl)imidazo[1,2-a]pyrazin-6-yl)isothiazolidine 1,1-dioxide]
[1]
  pIC50: 8.22
[2]
  pIC50: 9.22
[3]
  pIC50: 7.28
[4]; Homo sapiens, MOLM-14, 48 h
  pIC50: 8.30

## FC(F)(F)COc1cn2c(-c3cccc(N[C@@H]4CCNC4)n3)cnc2cn1 [Compound 38, (R)-N-(pyrrolidin-3-yl)-6-(6-(2,2,2-trifluoroethoxy)imidazo[1,2-a]pyrazin-3-yl)pyridin-2-amine]
[1]
  pIC50: 9.10
[2]
  pIC50: > 9.30
[3]
  pIC50: 7.04
[4]; Homo sapiens, MOLM-14, 48 h
  pIC50: 7.64
